Measurements: PMC4467156, “A new chemical inhibitor of angiogenesis and tumorigenesis that targets the VEGF signaling pathway upstream of Ras” (Oncotarget, 2015)

Key:
[1] = test system: embryoid bodies derived from mouse embryonic stem cells; assay: Vascular sprouting of embryoid bodies into collagen gels; format: cell-based; settings: 12.5 μM COB223 added at day 6
Description: CJ7 cells (1000 cells/well; 12-well plates) were allowed to differentiate in collagen gels in Iscove's medium containing Glutamax (Iscove's modified Dulbecco's medium; Invitrogen) supplemented with 1.2 mg/mL collagen I (BD Biosciences, Bedford, MA), 15% fetal calf serum (Invitrogen), 450 μM monothioglycerol (Sigma-Aldrich), 10 μg/mL insulin (Roche Diagnostics, Basel, Switzerland), 50 U/mL penicillin and 50 μg/mL streptomycin (Invitrogen), as previously described. A cocktail of growth factors was also added containing 50 ng/mL human VEGF-A (AbCys) and 100 ng/mL human FGF-2 (a generous gift from Dr. A. Baird, Whittier Institute, La Jolla, CA). At day 6, molecules were added with a novel addition of 50 ng/mL human VEGF-A and 100 ng/mL human FGF-2. Differentiation was allowed during 11 days.
Collagen gels containing EBs were dehydrated and fixed in 4% paraformaldehyde during 15 min at room temperature. […] For quantitation of endothelial sprouting, images were captured with a digital camera and measurement of the total length of endothelial sprouts was achieved by morphometric analysis using ImageJ software.

VEGFR2 phosphorylation = assay: Western blot, VEGFR2 autophosphorylation in HUVEC; format: cell-based, human; settings: 10 ng/mL VEGF-A 15 min, 25 μM COB223
Description: Figure 9 Effect of COB223 on growth factor-induced VEGF-R2, MEK and ERK phosphorylations (A) Serum-starved HUVEC cells were incubated for 15 min in the presence of either 10 ng/mL VEGF-A or 20 ng/mL FGF-2 and in the absence or the presence of 25 μM COB223. The phosphorylations of VEGFR2 on tyrosine 1175 or tyrosine 1214, of MEK and ERK1/2 were then analyzed by Western blot analysis of the cell lysates as described in Material and Methods. Western blots for total VEGFR2, MEK and ERK1/2 were used as loading controls. The blots shown in Figure 9A were obtained in one representative experiment. (B) The hybridization signals observed in 5 similar but independent experiments were quantitated and the ratios between phospho-VEGFR2(Y1175) or (Y1214) and VEGFR2 signals were normalized to the value observed in the absence of COB223. (C) The hybridization signals observed in 5 similar but independent experiments were quantitated and the ratios between phospho-ERK1/2 and ERK1/2 and between phospho-MEK and MEK were normalized to the values observed in the absence of COB223. Additional experiments performed with 10% fetal calf serum (FCS) as a mitogen were included in this analysis. * : p < 0.05; ** : p < 0.01
Serum-starved HUVEC cells were incubated for 15 min in the presence of either 10 ng/mL VEGF-A or 20 ng/mL FGF-2 and in the absence or the presence of indicated concentration of COB223. […]

3T3-GFP cells = assay: Scratch wound closure assay, 3T3-GFP; format: cell-based; settings: wound closure after 24 h, 10% FCS, tested 3.125 μM to 100 μM
Excerpt: Using this assay, we screened the academic library of the University of Grenoble, which is composed of 1360 original molecules. Setting the threshold of significant responses at 75% of the maximal inhibition, we identified 80 inhibitory molecules. At this stage, we reasoned that molecules that would affect the cytoskeleton dynamics or the adhesion properties of any cell type would be positive in this assay but would not represent good candidates for further development. We thus decided to perform a secondary counterscreen of the first 80 selected compounds on GFP-expressing 3T3 fibroblasts (3T3-GFP) using the same scratch assay. We then focused our interest on the 5 molecules that inhibited more strongly HMEC-GFP than 3T3-GFP wound healing. […] We synthesized a series of 30 analogs and tested them at various concentrations both on HMEC-GFP and 3T3-GFP cells. […] Dansyl and naphthalimide aromatic groups, found in COB223 and COB227 respectively, appeared very efficient. The presence of the diaminomethyl group on dansyl is critical for the activity of COB223 as shown by the lower efficiency of COB235 (IC50 is 8 times higher than that of COB223). COB223 and COB227 contain a tert-butyloxycarbonyl function (BOC group) as a second hydrophobic group. Replacement of BOC by an amino group decreased the efficiency and the specificity (compare 05-102-L-B09 vs 05-06-L-D03, or COB227 vs COB228).
Confluent cell monolayers were wounded with a plastic pipet tip, washed gently with phosphate buffer saline (PBS) and treated with complete media containing molecules, as indicated. Cells were placed at 37°C into the incubator and photographed at indicated times. Quantitation of closure of the monolayer was performed using the NIH Image J program (http://rsbweb.nih.gov/ij/). Results are expressed as percentage of wound closure at t = 24 h as compared to the initial wound at t = 0 h.

ERK2 = ERK2 (Homo sapiens, UniProt P28482); assay: In vitro kinase assay ERK2; format: biochemical; settings: concentrations up to 50 μM
Sequence of ERK2 (P28482 whole entry, species assumed): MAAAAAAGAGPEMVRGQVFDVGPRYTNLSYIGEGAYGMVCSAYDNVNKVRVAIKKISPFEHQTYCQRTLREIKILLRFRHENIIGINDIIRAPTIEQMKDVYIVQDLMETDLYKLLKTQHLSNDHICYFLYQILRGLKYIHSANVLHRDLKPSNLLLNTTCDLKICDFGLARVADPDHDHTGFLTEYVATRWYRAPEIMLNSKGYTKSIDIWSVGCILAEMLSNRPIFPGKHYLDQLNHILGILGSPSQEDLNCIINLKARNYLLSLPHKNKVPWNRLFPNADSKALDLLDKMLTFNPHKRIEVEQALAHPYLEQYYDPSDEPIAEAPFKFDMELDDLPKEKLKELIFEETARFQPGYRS
Description: We first wondered whether COB223 required to be internalized to exert its biological effect. For this, we synthesized a covalent complex between BSA and COB223 and purified it. […] In vitro kinase assays were performed with a panel of purified protein-kinases involved in mitogenic signaling, including VEGFR2, FGFR1, FGFR2, PDGFRß, Met, Raf, MEK1, ERK1, ERK2, PKCα, PKCβI, PKCβII, PKCζ as indicated in Table 2. […] We then analyzed the effect of COB223 on VEGF-induced phosphorylations of VEGFR2, MEK and ERK1/2 (Figure 9). […] (Figure 9A, 9B). […] It was also specific of the p42/p44 MAP kinase pathway as activation of p38 MAP kinase phosphorylation in HUVEC cells by VEGF or serum was unaffected by COB223 (data not shown). The activation of src phosphorylation by VEGF in HUVECs was also unaffected by COB223 (data not shown).

## CN(C)c1cccc2c(S(=O)(=O)NCCCN3CCN(CCCNC(=O)OC(C)(C)C)CC3)cccc12 [COB223, tert-Butyl 3-(4-(3-(5-(dimethylamino)naphthalene-1-sulfonamido)propyl)piperazin-1-yl) propylcarbamate]
[1]
  endothelial sprouting (CD31 immunostaining): complete inhibition
VEGFR2 phosphorylation
  autophosphorylation of VEGFR2 on tyrosine 1175: did not alter
  autophosphorylation of VEGFR2 on tyrosine 1214: did not alter
3T3-GFP cells
  IC50: 25 µM
ERK2
  kinase inhibition: None of them was inhibited
